Reference: US6642263B2, “Modulators of Rho C activity” (Iconix Pharmaceuticals Inc., priority 2001, dated 2003)

Molecular target: T1, RhoC (Homo sapiens, UniProt P08134)
T1 construct: cDNAs corresponding to the complete open reading frame of RhoC were PCR amplified; expressed in transfected cells; host or cells: Saccharomyces cerevisiae strain EIS20-2B, pARC35B-derived expression plasmid integrated at LYS2, galactose-induced
Assay: Yeast growth restoration assay (RhoC expressed in yeast, surrogate genetic assay)
Type: cell-based, mammalian
Conditions: retested in dilutions from 0.5 μM to 128 μM; 30° C., 40-42 hrs, OD600
Procedure: Compounds of the invention are assayed for activity using any convenient biochemical or biological assay. For example, one can examine compounds for binding to recombinantly-expressed RhoC, assay compounds for their ability to reverse a RhoC-induced phenotype in a heterologous cell (see e.g., WO99/24563, incorporated herein by reference), or using one or more of the experimental protocols described in the references cited herein. […] Compounds were also examined for inhibition of stress fibers, by stimulating NIH 3T3 cells with 10 μM LPA in DMEM+0.2% FBS in the presence of test compounds for 4 hours.
(A) cDNAs corresponding to the complete open reading frame of RhoC were PCR amplified from pooled total cDNAs initially synthesized from placental, fetal brain, and fetal liver poly(A)^+ mRNAs (Clontech Laboratories, Inc.). […]
After PCR, approximately 200 ng of amplified cDNA was cotransformed with approximately 100 ng of vector into yeast and transformants were selected for leucine prototrophy. […] Plasmids from at least three independent transformants were subsequently rescued into the E. coli strain DH5alpha via electroporation, and further characterized by restriction enzyme analysis and DNA sequencing of the RhoC open reading frame. […]

T1 sequence (P08134 whole entry): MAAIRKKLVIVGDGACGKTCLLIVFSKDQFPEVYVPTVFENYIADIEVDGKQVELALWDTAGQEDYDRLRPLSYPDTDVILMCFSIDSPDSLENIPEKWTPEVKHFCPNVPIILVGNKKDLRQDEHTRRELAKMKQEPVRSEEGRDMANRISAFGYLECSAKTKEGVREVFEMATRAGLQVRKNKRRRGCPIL

potency / activity (growth restoration of RhoC-expressing yeast): only weak activity
SMILES: Cc1ccc(NS(=O)(=O)CSc2nc3ccccc3s2)cc1 [2-(4-methylphenylsulfamyl)methylthio-benzo[d]thiazole]
